# Measurements: US8778966B2, “Quinolinone derivatives as PARP and tank inhibitors” (Janssen Pharmaceutica, NV, priority 2007, dated 2014)
# Key:
# [1] = tested on: HCT116 cells; test: Antiproliferative activity, Alamar Blue assay, HCT116 cells; format: cell-based, human; set-up: key to HCT116 antiproliferative activity pIC50: pIC50 = -log IC50 (IC50: conc. reducing growth to 50% of control); settings: for IC50: Homo sapiens, HCT-116, HCT116 cells, read-out: HCT116 antiproliferative activity pIC50 (converted); for HCT116 antiproliferative activity pIC50: HCT116 cells
# Method in brief: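 HCT116 cells seeded, adhered 24 h, then exposed to compound for 4 days; Alamar Blue (resazurin) added for 4 h at 37 °C, fluorescence read at 540/590 nm. Viability as % of untreated control, triplicate wells; IC50 by probit analysis, reported as pIC50.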
# [2] = tested on: PC-3 cells; test: Antiproliferative activity, Alamar Blue assay, PC-3 cells; format: cell-based, human; settings: for IC50: Homo sapiens, PC-3, PC3 cells, read-out: PC3 antiproliferative activity pIC50 (converted); for PC3 antiproliferative activity pIC50: PC3 cells
# Method in brief: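 PC-3 cells seeded at 4.5×10^3 cells/ml, left to adhere 24 hr, then exposed to compound for 4 days. Resazurin (Alamar Blue) added for a further 24 hrs at 37° C; fluorescence read at 540/590 nm. Viability as % of untreated control, mean of 3 wells; IC50 by probit analysis, reported as pIC50.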
Compound,IC50 [1] [µM],IC50 [2] [µM],HCT116 antiproliferative activity pIC50 [1],PC3 antiproliferative activity pIC50 [2]
CCc1cc2ccc(C(C)(C#N)Cc3cccc(-c4cnn(C)c4)c3)cc2[nH]c1=O (stereo not drawn) [Compound 17],2.51,10,,
CCc1cc2ccc(C(C)(C#N)Cc3cccc(-c4ccccc4)c3)cc2[nH]c1=O (stereo not drawn) [Compound 18],5.01,1.26,,
CCc1cc2ccc(C(C)(C#N)Cc3cccc(I)c3)cc2[nH]c1=O (stereo not drawn) [Compound 19],0.0501,0.158,,
CCc1cc2ccc(C(C)(C#N)Cc3cccc(N(C)C)c3)cc2[nH]c1=O (stereo not drawn) [Compound 20],0.2,0.2,,
CCc1cc2ccc(C(C)(C#N)Cc3cccc(N4CCOCC4)c3)cc2[nH]c1=O (stereo not drawn) [Compound 21],1.26,2,,
CCc1cc2ccc(C(C)(C#N)Cc3cccc(O)c3)cc2[nH]c1=O (stereo not drawn) [Compound 22],> 10,7.94,,
CCc1cc2ccc(C(C)(C#N)Cc3cccc(OCc4ccccc4)c3)cc2[nH]c1=O (stereo not drawn) [Compound 23],3.16,5.01,,
CCc1cc2ccc(C(C)(C#N)Cc3cccc(OCCOC)c3)cc2[nH]c1=O (stereo not drawn) [Compound 24],1,1,,
CCC(=O)c1cccc(CC(C)(C#N)c2ccc3cc(C)c(=O)[nH]c3c2)c1 (stereo not drawn) [Compound 173],0.2,0.398,,
CCc1cc2ccc(C(C)(C#N)Cc3cc(C)cc(C#N)c3)cc2[nH]c1=O (stereo not drawn) [Compound 174],0.1,0.2,,
CCc1cc2ccc(C(C)(C#N)Cc3cccc(S(F)(F)(F)(F)F)c3)cc2[nH]c1=O (stereo not drawn) [Compound 177],2,3.16,,
CCc1cc2ccc(C(C)(C#N)Cc3cccc(C4(N)CC4)c3)cc2[nH]c1=O (stereo not drawn) [Compound 180],2,3.16,,
CCc1cc2ccc(C(C)(C#N)CCCN(C)C(=O)c3ccc(F)cc3)cc2[nH]c1=O (stereo not drawn) [Compound 188],1,2.51,,
CCc1cc2ccc([C@](C)(C#N)CN(C)Cc3ccc(C#N)cc3)cc2[nH]c1=O [Compound 190],10,10,,
Cc1cc2ccc(C(C)(C#N)Cc3cccc(Oc4ncccn4)c3)cc2[nH]c1=O (stereo not drawn) [Compound 191],0.251,0.501,,
Cc1cc2ccc(C(C)(C#N)Cc3cccc(Oc4ccccc4)n3)cc2[nH]c1=O (stereo not drawn) [Compound 193],0.398,0.631,,

Compound,IC50 [1] [µM],IC50 [2] [µM],HCT116 antiproliferative activity pIC50 [1],PC3 antiproliferative activity pIC50 [2]
CCc1cc2cc(C)c(C(C)(C#N)Cc3cccc(C#N)n3)cc2[nH]c1=O (stereo not drawn) [Compound 208],6.31,10,,
CCc1cc2ccc(C(C)(C#N)Cc3ccc(Cl)nc3Cl)cc2[nH]c1=O (stereo not drawn) [Compound 212],3.16,5.01,,
COc1cc2ccc(C(C)(C#N)Cc3cccc(C#N)n3)cc2[nH]c1=O (stereo not drawn) [Compound 218],1.26,1.26,,
CCc1cnc(OCCC(C)(C#N)c2ccc3cc(CC)c(=O)[nH]c3c2)nc1 (stereo not drawn) [Compound 222],3.16,3.98,,
CCc1cc2ccc(C(C)(C#N)CCOc3nccc(OC)n3)cc2[nH]c1=O (stereo not drawn) [Compound 223],3.98,6.31,,
CCc1cc2ccc(C(C)(C#N)Cc3ccc(OC)nc3Cl)cc2[nH]c1=O (stereo not drawn) [Compound 224],2,3.16,,
CCc1cc2ccc(C(C)(C#N)Cc3ccc(Cl)nc3OC)cc2[nH]c1=O (stereo not drawn) [Compound 225],0.501,0.794,,
CCc1cc2ccc(C(C)(C#N)Cc3cccc(N4CCCC4)n3)cc2[nH]c1=O (stereo not drawn) [Compound 226],1.26,1.58,,
Cc1cc2ccc(C(C)(C#N)Cc3cccc(C#N)n3)cc2[nH]c1=O (stereo not drawn) [Compound 227],0.501,0.631,,
CCc1cc2ccc(C(C)(C#N)Cc3cc(OC)cc(OC)n3)cc2[nH]c1=O (stereo not drawn) [Compound 232],0.1,0.251,,
CCc1cc2ccc(C(C)(C#N)Cc3cc(C#N)cc4c3OCC4)cc2[nH]c1=O (stereo not drawn) [Compound 236],0.2,0.501,,
CCc1cc2ccc(C(C)(C#N)Cc3cc4ccccc4nn3)cc2[nH]c1=O (stereo not drawn) [Compound 238],1.58,3.98,,
Cc1cc2ccc([C@@](C)(C#N)[C@@H]3CCc4cc(Br)ccc43)cc2[nH]c1=O [Compound 240],10,10,,
Cc1cc2ccc([C@@](C)(C#N)[C@H]3CCc4cc(Br)ccc43)cc2[nH]c1=O [Compound 241],0.501,0.794,,
Cc1cc2ccc([C@](C)(C#N)[C@@H]3CCc4cc(Br)ccc43)cc2[nH]c1=O [Compound 242],0.0501,0.0794,,
CCc1cc2ccc(C(C)(C#N)CN(C)CCc3cn(C)c4ccccc34)cc2[nH]c1=O (stereo not drawn) [Compound 303],1.58,3.16,,

# The next lines start with the values.
IC50 [1] [µM],IC50 [2] [µM],HCT116 antiproliferative activity pIC50 [1],PC3 antiproliferative activity pIC50 [2],Compound
6.31,10,,,Cc1cc2ccc(C(C)(C#N)C3CCc4c(C#N)cccc43)cc2[nH]c1=O (racemic) [Compound 393]
0.0631,0.158,,,"CCc1cc2ccc([C@@](C)(C#N)CN(C)Cc3ccc(C#N)cc3)cc2[nH]c1=O (single isomer, unassigned) [Compound 253]"
,,5.7,5.5,"CCc1cc2ccc(C(C)(C#N)C3CCc4ccc(Br)cc43)cc2[nH]c1=O (single isomer, unassigned) [Compound 380]"
,,7.3,7.0,"CCc1cc2ccc(C(C)(C#N)C3CCc4ccc(Br)cc43)cc2[nH]c1=O (single isomer, unassigned) [Compound 381]"
6.31,10,,,"Cc1cc2ccc([C@](C)(C#N)C3CCc4cccnc43)cc2[nH]c1=O (single isomer, unassigned) [Compound 388]"
7.94,10,,,"CCc1cc2ccc([C@](C)(C#N)[C@H]3CCOc4ccccc43)cc2[nH]c1=O (single isomer, unassigned) [Compound 394]"
0.631,0.794,,,"CCc1cc2ccc([C@@](C)(C#N)[C@H]3CCOc4ccccc43)cc2[nH]c1=O (single isomer, unassigned) [Compound 395]"
,7.94,,,"CCc1cc2ccc([C@](C)(C#N)C[C@H]3CCc4ccccc4O3)cc2[nH]c1=O (single isomer, unassigned) [Compound 396]"
,,6.8,6.6,Cc1cc2ccc(C(C)(C#N)C3CCc4cc(Br)ccc43)cc2[nH]c1=O (stereo not drawn) [Compound 244]
0.501,0.794,,,Cc1cc2ccc(C(C)(C#N)C3CCc4c(Br)cccc43)cc2[nH]c1=O (stereo not drawn) [Compound 248]
0.158,0.251,,,Cc1cc2ccc(C(C)(C#N)C3CCc4ccc(Br)cc43)cc2[nH]c1=O (stereo not drawn) [Compound 249]
0.2,0.316,,,Cc1cc2ccc(C(C)(C#N)C3CCc4ccc(C#N)cc43)cc2[nH]c1=O (stereo not drawn) [Compound 250]
0.501,0.794,,,C=C(C)c1cccc(CC(C)(C#N)c2ccc3cc(CC)c(=O)[nH]c3c2)c1 (stereo not drawn) [Compound 254]
0.501,1,,,CCc1cc2ccc(C(C#N)(CC)Cc3cccc(C#N)c3)cc2[nH]c1=O (stereo not drawn) [Compound 265]
0.2,0.398,,,CCc1cc2ccc(C(C)(C#N)Cc3cc(F)cc(C#N)c3)cc2[nH]c1=O (stereo not drawn) [Compound 266]
1.58,3.16,,,CCc1cc2ccc(C(C#N)(CC)Cc3cccc(F)c3)cc2[nH]c1=O (stereo not drawn) [Compound 270]
2,5.01,,,Cc1cc2ccc(C(C)(C#N)CCCCOc3ccccc3)cc2[nH]c1=O (stereo not drawn) [Compound 272]
0.398,1,,,Cc1cc2ccc(C(C)(C#N)Cc3cc(F)cc(F)c3)cc2[nH]c1=O (stereo not drawn) [Compound 282]
0.158,0.2,,,CCc1cc2ccc(C(C)(C#N)Cc3cc(C)cc(Br)c3)cc2[nH]c1=O (stereo not drawn) [Compound 284]
1.26,1.26,,,CCc1cc2ccc(C(C#N)(CC)Cc3cccc(OC)c3)cc2[nH]c1=O (stereo not drawn) [Compound 287]
0.251,0.398,,,Cc1cc2ccc(C(C)(C#N)Cc3cccc(Oc4ccccn4)c3)cc2[nH]c1=O (stereo not drawn) [Compound 304]
0.501,1,,,CCOc1cc(N(C)C)nc(CC(C)(C#N)c2ccc3cc(CC)c(=O)[nH]c3c2)n1 (stereo not drawn) [Compound 312]
0.631,1.26,,,CCOc1cc(C#N)nc(CC(C)(C#N)c2ccc3cc(CC)c(=O)[nH]c3c2)n1 (stereo not drawn) [Compound 315]
0.631,1.26,,,CCc1cc2ccc(C(C#N)(CC)Cc3nc(C#N)cc(OC)n3)cc2[nH]c1=O (stereo not drawn) [Compound 316]
0.316,0.398,,,CCc1cc2ccc(C(C#N)(CC)Cc3nc(OC)cc(OC)n3)cc2[nH]c1=O (stereo not drawn) [Compound 321]
3.16,10,,,CCc1cc2ccc(C(C)(C#N)Cc3ccnc(C#N)c3)cc2[nH]c1=O (stereo not drawn) [Compound 324]
0.794,1,,,CCc1cc2ccc(C(C)(C#N)Cc3cc(C)nc(Cl)c3)cc2[nH]c1=O (stereo not drawn) [Compound 326]
0.501,1.26,,,CCc1cc2ccc(C(C)(C#N)Cc3cc(C)nc(C#N)c3)cc2[nH]c1=O (stereo not drawn) [Compound 328]
5.01,10,,,CCc1cc2ccc(C(C)(C#N)Cc3ccnc(F)c3)cc2[nH]c1=O (stereo not drawn) [Compound 330]
0.631,1.58,,,CCc1cc2ccc(C(C)(C#N)Cc3cccc(F)n3)cc2[nH]c1=O (stereo not drawn) [Compound 331]
